Data reported in PubChem BioAssay AID2060600 (Molecular Pharmacology Branch, DTP, NCI, 2025).
Blank lines part the entries; values can stand above or below the molecule they belong to.

System: 996289-038-R-J1-PDC complex spheroid viability
Assay: Anticancer human tumor 996289-038-R-J1-PDC patient-derived colon adenocarcinoma cell line growth inhibition [CLK]
Details: for IC50: curve of first compound; for viability, T/C: stronger effect = lower value
Procedure, shortened: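 Patient-derived tumor cells grown as complex spheroids with HUVEC endothelial cells and mesenchymal stem cells, treated with drug combinations. Concentrations descend in half-log steps from near clinical Cmax, or from 10 microM if Cmax unknown.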

[1] = second compound 0.0316 µM, first compound 0.0316 µM
[2] = second compound 0.0316 µM, first compound 0.1 µM
[3] = second compound 0.0316 µM, first compound 0.316 µM
[4] = second compound 0.0316 µM, first compound 1 µM
[5] = second compound 0.0316 µM, first compound 3.16 µM
[6] = second compound 0.0316 µM, first compound 10 µM
[7] = second compound 0.1 µM, first compound 0.0316 µM
[8] = second compound 0.1 µM, first compound 0.1 µM
[9] = second compound 0.1 µM, first compound 0.316 µM
[10] = second compound 0.1 µM, first compound 1 µM
[11] = second compound 0.1 µM, first compound 3.16 µM
[12] = second compound 0.1 µM, first compound 10 µM
[13] = second compound 0.316 µM, first compound 0.0316 µM
[14] = second compound 0.316 µM, first compound 0.1 µM
[15] = second compound 0.316 µM, first compound 0.316 µM
[16] = second compound 0.316 µM, first compound 1 µM
[17] = second compound 0.316 µM, first compound 3.16 µM
[18] = second compound 0.316 µM, first compound 10 µM
[19] = second compound 1 µM, first compound 0.0316 µM
[20] = second compound 1 µM, first compound 0.1 µM
[21] = second compound 1 µM, first compound 0.316 µM
[22] = second compound 1 µM, first compound 1 µM
[23] = second compound 1 µM, first compound 3.16 µM
[24] = second compound 1 µM, first compound 10 µM
[25] = second compound 3.16 µM, first compound 0.0316 µM
[26] = second compound 3.16 µM, first compound 0.1 µM
[27] = second compound 3.16 µM, first compound 0.316 µM
[28] = second compound 3.16 µM, first compound 1 µM
[29] = second compound 3.16 µM, first compound 3.16 µM
[30] = second compound 3.16 µM, first compound 10 µM
[31] = second compound 10 µM, first compound 0.0316 µM
[32] = second compound 10 µM, first compound 0.1 µM
[33] = second compound 10 µM, first compound 0.316 µM
[34] = second compound 10 µM, first compound 1 µM
[35] = second compound 10 µM, first compound 3.16 µM
[36] = second compound 10 µM, first compound 10 µM
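Note: spheroids exposed to the agents for 7 days before readout.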

IC50 (second compound 0.0316 µM): 1820 nM | IC50 (second compound 0.1 µM): 503 nM | IC50 (second compound 0.316 µM): 99.1 nM | IC50 (second compound 1 µM): < 31.6 nM | IC50 (second compound 3.16 µM): < 31.6 nM | IC50 (second compound 10 µM): < 31.6 nM
SMILES: C#Cc1c(F)ccc2cc(O)cc(-c3ncc4c(N5CC6CCC(C5)N6)nc(OCC56CCCN5CC(F)C6)nc4c3F)c12 (stereo not given) + CNC(=O)c1ccc(Nc2nc(OC3CCCC3)c3c(-c4ccc5nc(C)oc5c4)c[nH]c3n2)c(OC)c1
viability, T/C [1]: 107% | viability, T/C [2]: 93.2% | viability, T/C [3]: 71% | viability, T/C [4]: 62.4% | viability, T/C [5]: 40% | viability, T/C [6]: 29.3% | viability, T/C [7]: 106% | viability, T/C [8]: 77.1% | viability, T/C [9]: 55.9% | viability, T/C [10]: 42.4% | viability, T/C [11]: 32.2% | viability, T/C [12]: 30.5% | viability, T/C [13]: 60.7% | viability, T/C [14]: 50.4% | viability, T/C [15]: 35.6% | viability, T/C [16]: 28.3% | viability, T/C [17]: 25.5% | viability, T/C [18]: 22.4% | viability, T/C [19]: 33.8% | viability, T/C [20]: 26.5% | viability, T/C [21]: 25.4% | viability, T/C [22]: 21.5% | viability, T/C [23]: 22.1% | viability, T/C [24]: 20.6% | viability, T/C [25]: 28.3% | viability, T/C [26]: 24.3% | viability, T/C [27]: 24.5% | viability, T/C [28]: 21.4% | viability, T/C [29]: 22.9% | viability, T/C [30]: 17.8% | viability, T/C [31]: 28.7% | viability, T/C [32]: 23.1% | viability, T/C [33]: 20.2% | viability, T/C [34]: 22.3% | viability, T/C [35]: 22.8% | viability, T/C [36]: 17.9%

IC50 (second compound 0.0316 µM): 5200 nM | IC50 (second compound 0.1 µM): 4820 nM | IC50 (second compound 0.316 µM): 3790 nM | IC50 (second compound 1 µM): 2280 nM | IC50 (second compound 3.16 µM): 1500 nM | IC50 (second compound 10 µM): 1400 nM
SMILES: C=C(F)C(=O)N1CCN(c2nc(OCC3CCCN3C)nc3c2CCN(c2cccc4cccc(Cl)c24)C3)CC1CC#N (stereo not given) + CNC(=O)c1ccc(Nc2nc(OC3CCCC3)c3c(-c4ccc5nc(C)oc5c4)c[nH]c3n2)c(OC)c1
viability, T/C [1]: 127% | viability, T/C [2]: 129% | viability, T/C [3]: 116% | viability, T/C [4]: 121% | viability, T/C [5]: 86.7% | viability, T/C [6]: 1.33% | viability, T/C [7]: 116% | viability, T/C [8]: 115% | viability, T/C [9]: 106% | viability, T/C [10]: 107% | viability, T/C [11]: 77.9% | viability, T/C [12]: 1% | viability, T/C [13]: 75.2% | viability, T/C [14]: 72.2% | viability, T/C [15]: 72.6% | viability, T/C [16]: 75.7% | viability, T/C [17]: 57.4% | viability, T/C [18]: 2.02% | viability, T/C [19]: 62.9% | viability, T/C [20]: 62.9% | viability, T/C [21]: 59.9% | viability, T/C [22]: 64.7% | viability, T/C [23]: 45.1% | viability, T/C [24]: 0.61% | viability, T/C [25]: 59.8% | viability, T/C [26]: 59.4% | viability, T/C [27]: 56.5% | viability, T/C [28]: 56.8% | viability, T/C [29]: 38.2% | viability, T/C [30]: 1.01% | viability, T/C [31]: 61.9% | viability, T/C [32]: 59% | viability, T/C [33]: 56.2% | viability, T/C [34]: 57.2% | viability, T/C [35]: 33.5% | viability, T/C [36]: 0.31%

IC50 (second compound 0.0316 µM): > 10000 nM | IC50 (second compound 0.1 µM): > 10000 nM | IC50 (second compound 0.316 µM): > 10000 nM | IC50 (second compound 1 µM): > 10000 nM | IC50 (second compound 3.16 µM): > 10000 nM | IC50 (second compound 10 µM): > 10000 nM
SMILES: CC(CO)NC(=O)c1cc(-c2ccc(Cl)cc2)nn(-c2cnn(C)c2)c1=O (stereo not given) + CNC(=O)c1ccc(Nc2nc(OC3CCCC3)c3c(-c4ccc5nc(C)oc5c4)c[nH]c3n2)c(OC)c1
viability, T/C [1]: 117% | viability, T/C [2]: 111% | viability, T/C [3]: 108% | viability, T/C [4]: 117% | viability, T/C [5]: 109% | viability, T/C [6]: 99.6% | viability, T/C [7]: 131% | viability, T/C [8]: 113% | viability, T/C [9]: 116% | viability, T/C [10]: 95.4% | viability, T/C [11]: 101% | viability, T/C [12]: 83.7% | viability, T/C [13]: 79.8% | viability, T/C [14]: 76.9% | viability, T/C [15]: 73.2% | viability, T/C [16]: 71.4% | viability, T/C [17]: 72.7% | viability, T/C [18]: 68.9% | viability, T/C [19]: 64.2% | viability, T/C [20]: 63.7% | viability, T/C [21]: 57.8% | viability, T/C [22]: 57.5% | viability, T/C [23]: 57.5% | viability, T/C [24]: 49% | viability, T/C [25]: 58.2% | viability, T/C [26]: 57.6% | viability, T/C [27]: 55.3% | viability, T/C [28]: 54.7% | viability, T/C [29]: 56.9% | viability, T/C [30]: 48.3% | viability, T/C [31]: 52.4% | viability, T/C [32]: 56.9% | viability, T/C [33]: 56.2% | viability, T/C [34]: 58.5% | viability, T/C [35]: 55.5% | viability, T/C [36]: 44.8%

IC50 (second compound 0.0316 µM): > 10000 nM | IC50 (second compound 0.1 µM): 8750 nM | IC50 (second compound 0.316 µM): 655 nM | IC50 (second compound 1 µM): 45.3 nM | IC50 (second compound 3.16 µM): 48.9 nM | IC50 (second compound 10 µM): < 31.6 nM
SMILES: CC(Nc1ccc2c(c1)OCCn1cc(N3C(=O)OCC3C(F)F)nc1-2)C(N)=O (stereo not given) + CNC(=O)c1ccc(Nc2nc(OC3CCCC3)c3c(-c4ccc5nc(C)oc5c4)c[nH]c3n2)c(OC)c1
viability, T/C [1]: 113% | viability, T/C [2]: 92.9% | viability, T/C [3]: 83.4% | viability, T/C [4]: 69.1% | viability, T/C [5]: 60.2% | viability, T/C [6]: 49.7% | viability, T/C [7]: 114% | viability, T/C [8]: 97.3% | viability, T/C [9]: 82.1% | viability, T/C [10]: 70.9% | viability, T/C [11]: 61.1% | viability, T/C [12]: 47.4% | viability, T/C [13]: 69.1% | viability, T/C [14]: 62.3% | viability, T/C [15]: 53% | viability, T/C [16]: 47.4% | viability, T/C [17]: 42.2% | viability, T/C [18]: 32.2% | viability, T/C [19]: 52.9% | viability, T/C [20]: 43.7% | viability, T/C [21]: 38.3% | viability, T/C [22]: 31.5% | viability, T/C [23]: 29.2% | viability, T/C [24]: 24.4% | viability, T/C [25]: 53.7% | viability, T/C [26]: 44.8% | viability, T/C [27]: 33.1% | viability, T/C [28]: 31.5% | viability, T/C [29]: 25.4% | viability, T/C [30]: 21.9% | viability, T/C [31]: 46.7% | viability, T/C [32]: 42.8% | viability, T/C [33]: 31.2% | viability, T/C [34]: 30.6% | viability, T/C [35]: 27.1% | viability, T/C [36]: 21.8%

IC50 (second compound 0.0316 µM): 123 nM | IC50 (second compound 0.1 µM): 97.3 nM | IC50 (second compound 0.316 µM): 28.9 nM | IC50 (second compound 1 µM): 7.67 nM | IC50 (second compound 3.16 µM): 3.86 nM | IC50 (second compound 10 µM): < 3.16 nM
SMILES: COc1c(OCCCN2CCOCC2)ccc2c3n(c(=NC(=O)c4cnc(N)nc4)nc12)CCN3 + CNC(=O)c1ccc(Nc2nc(OC3CCCC3)c3c(-c4ccc5nc(C)oc5c4)c[nH]c3n2)c(OC)c1
viability, T/C (second compound 0.0316 µM, first compound 0.00316 µM): 112% | viability, T/C (second compound 0.0316 µM, first compound 0.01 µM): 96.5% | viability, T/C [1]: 72.6% | viability, T/C [2]: 54.6% | viability, T/C [3]: 35.4% | viability, T/C [4]: 25.2% | viability, T/C (second compound 0.1 µM, first compound 0.00316 µM): 112% | viability, T/C (second compound 0.1 µM, first compound 0.01 µM): 96.1% | viability, T/C [7]: 71.8% | viability, T/C [8]: 48.7% | viability, T/C [9]: 33.8% | viability, T/C [10]: 21.2% | viability, T/C (second compound 0.316 µM, first compound 0.00316 µM): 70.2% | viability, T/C (second compound 0.316 µM, first compound 0.01 µM): 62.8% | viability, T/C [13]: 47.7% | viability, T/C [14]: 35.5% | viability, T/C [15]: 22.9% | viability, T/C [16]: 14.4% | viability, T/C (second compound 1 µM, first compound 0.00316 µM): 59.1% | viability, T/C (second compound 1 µM, first compound 0.01 µM): 46.5% | viability, T/C [19]: 33.8% | viability, T/C [20]: 19.7% | viability, T/C [21]: 15.6% | viability, T/C [22]: 13.3% | viability, T/C (second compound 3.16 µM, first compound 0.00316 µM): 51.2% | viability, T/C (second compound 3.16 µM, first compound 0.01 µM): 41.9% | viability, T/C [25]: 29.5% | viability, T/C [26]: 20.7% | viability, T/C [27]: 13.5% | viability, T/C [28]: 11.7% | viability, T/C (second compound 10 µM, first compound 0.00316 µM): 46.6% | viability, T/C (second compound 10 µM, first compound 0.01 µM): 40.4% | viability, T/C [31]: 28.9% | viability, T/C [32]: 18.4% | viability, T/C [33]: 12.7% | viability, T/C [34]: 10.5%
